Consider 15 compounds from patent US20260001914A1, “MACROCYCLIC PEPTIDES TARGETING KRAS” (Merck Sharp & Dohme LLC, priority 2022, published 2026).

*1 amine or outer side, *2 acyl side, *3 side chain or, on linkers, in order; H or OH if unused. Where a SMILES comes first, the peptide text is derived from it. Bridges are numbered along the chain shown (N, C = ends). [ ]: non-standard residue; d: D form. Ala(pyrimidin-5-yl) = N[C@@H](Cc1cncnc1)C(=O)O; X6 = O=C([C@H](Cc1cnn(C2COC2)c1)N[*:1])[*:2]; X39 = CN([C@@H](Cc1cccnc1F)C(=O)[*:2])[*:1]; X45 = CN([C@@H](Cc1ccncc1F)C(=O)[*:2])[*:1]; Nle(5,5-F2) = CC(F)(F)CC[C@H](N)C(=O)O; Phe(2-CN) = N#Cc1ccccc1C[C@H](N)C(=O)O; Phe(3-Me) = Cc1cccc(C[C@H](N)C(=O)O)c1; Phe(2-F) = N[C@@H](Cc1ccccc1F)C(=O)O; NMe3Pal = CN[C@@H](Cc1cccnc1)C(=O)O; X1 = O=C(C12CC(CN[*:1])(C1)C2)[*:2]; X17 = O=C([C@H](CCCCF)N[*:1])[*:2]; Ala(cPr) = N[C@@H](CC1CC1)C(=O)O; NMeF = CN[C@@H](Cc1ccccc1)C(=O)O; PhLac = O=C(O)[C@@H](O)Cc1ccccc1; 3Pal = N[C@@H](Cc1cccnc1)C(=O)O; Ahp(2) = CCCCC[C@H](N)C(=O)O; Ala(CN) = N#CC[C@H](N)C(=O)O; Cba = N[C@@H](CC1CCC1)C(=O)O; hLeu = CC(C)CC[C@H](N)C(=O)O; αMeC = C[C@](N)(CS)C(=O)O; NMeA = CN[C@@H](C)C(=O)O; Nle = CCCC[C@H](N)C(=O)O A value given as a limit tells only on which side of the number the result lay.

For this experiment, the target named is phosphorylation levels of ERK1/2 in AsPC-1 (homozygous KRAS-G12D) cells (Homo sapiens, UniProt P01116, G12D). In words: Cellular phospho-ERK assay in AsPC-1 cells (Alpha Screen), assay medium without fetal bovine serum.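 Also: signal taken as phospho-ERK over total ERK per well, both detected in one multiplex bead assay, EC50 from four-parameter logistic fit of dose-response curves.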 It counts as cell-based. The following applies: phospho-ERK AlphaScreen, 18 h.
Sequence of phosphorylation levels of ERK1/2 in AsPC-1 (homozygous KRAS-G12D) cells (P01116 1-186 G12D): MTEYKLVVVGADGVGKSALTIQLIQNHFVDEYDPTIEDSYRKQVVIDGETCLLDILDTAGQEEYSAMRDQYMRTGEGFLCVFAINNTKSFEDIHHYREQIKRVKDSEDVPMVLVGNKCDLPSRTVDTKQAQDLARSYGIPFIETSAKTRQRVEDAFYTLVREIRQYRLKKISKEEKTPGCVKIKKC
Description: Assay plate was incubated at 37° C. 5% CO2 for the indicated length of time. […] Phosphorylated ERK and total ERK levels were detected by Alpha SureFire Ultra Multiplex pERK kit (PerkinElmer MPSU-PTERK) using 5 μL, acceptor bead mix and 5 μL donor bead mix, both prepared following the manufacturer's protocol. Plates were sealed using aluminum sealing tape (Costar 07-200-683) during incubation at ambient temperature with constant shaking at 300 rpm for 1 h (both acceptor and donor). Assay plates were read on a Envision Xcite Multilabel Reader (PerkinElmer 1040900) at ambient temperature, with emission at 535 nm (Total ERK) and emission at 615 nm (Phospho ERK). Ratio of pERK vs total ERK in each well was used as the final readout. Dose response curves and EC50 were analyzed using a 4-parameter logistic equation in GraphPad Prism software.
`CCCC[C@@H]1NC(=O)[C@H](Cc2cccnc2)NC(=O)[C@H](C)N(C)C(=O)[C@H](Cc2ccccc2)NC(=O)CSC[C@@](C)(C(N)=O)NC(=O)[C@H](Cc2ccccc2)N(C)C(=O)[C@H](CCCC)NC(=O)[C@H](Cc2ccccc2F)NC1=O` [compound 159, cyclo(F-NMeA-3Pal-Nle-Phe2F-Nle-NMeF-aMeCl-ClAc)] ({CH2CO}-F[NMeA][3Pal][Nle][Phe(2-F)][Nle][NMeF][αMeC]-NH2; thioether N-8) had an EC50 of 21 µM.

Compound `CCCC[C@@H]1NC(=O)[C@H](Cc2cccnc2)NC(=O)[C@H](C)N(C)C(=O)[C@H](Cc2cccc(C)c2)NC(=O)C23CC(CNC(=O)[C@H](Cc4cccnc4)N(C)C(=O)[C@H](CCCC)NC(=O)[C@H](Cc4ccccc4F)NC1=O)(C2)C3` [compound 166, cyclo(Phe3Me-NMeA-3Pal-Nle-Phe2F-Nle-NMe3Pal-amBCP)] (cyclo([3Pal][Nle][Phe(2-F)][Nle][NMe3Pal][X1][Phe(3-Me)][NMeA])) returned an EC50 of 32.3 µM.

As for `C[C@H]1C(=O)N[C@@H](Cc2cncnc2)C(=O)N[C@@H](CCC(C)(F)F)C(=O)N[C@@H](Cc2ccccc2F)C(=O)N[C@@H](CCC(C)(F)F)C(=O)N(C)[C@@H](Cc2ccccc2)C(=O)NCC23CC(C2)(C3)C(=O)O[C@@H](Cc2ccccc2)C(=O)N1C` [compound 288, cyclo(FLac-NMeA-PyrimAla-Nle3F2-Phe2F-Nle3F2-NMeF-amBCP)] (cyclo([NMeA][Ala(pyrimidin-5-yl)][Nle(5,5-F2)][Phe(2-F)][Nle(5,5-F2)][NMeF][X1][PhLac])), the 50% effective concentration (EC50) amounted to 6.61 µM. Against the preceding compound, the EC50 is about 4.9-fold lower.

Regarding `CCCC[C@@H]1NC(=O)[C@H](Cc2cccnc2)NC(=O)[C@H](CC#N)NC(=O)[C@H](Cc2ccccc2)OC(=O)C23CC(CNC(=O)[C@H](Cc4cccnc4)N(C)C(=O)[C@H](CCCC)NC(=O)[C@H](Cc4ccccc4F)NC1=O)(C2)C3` [compound 252, cyclo(FLac-AlaCN-3Pal-Nle-Phe2F-Nle-NMe3Pal-amBCP)] (cyclo([3Pal][Nle][Phe(2-F)][Nle][NMe3Pal][X1][PhLac][Ala(CN)])), the EC50 is over 50.8 µM.

On to `CCCCC[C@@H]1NC(=O)[C@H](Cc2ccc(OC)cc2)NC(=O)[C@H](CC2CCC2)NC(=O)[C@H](Cc2ccc(C)nc2)NC(=O)[C@H](CCCNC(=N)N)NC(=O)[C@H](Cc2ccccc2)NC(=O)CSC[C@@](C)(C(N)=O)NC(=O)[C@H](Cc2ccccc2)N(C)C1=O` [compound 364, cyclo(F-R-4Me3Pal-cBuA-TyrOMe-Ahp-NMeF-aMeCl-ClAc)], for which the EC50 was over 50.8 µM.

`CCCCC[C@@H]1NC(=O)[C@H](Cc2ccccc2C#N)NC(=O)[C@H](CC2CCC2)NC(=O)[C@H](Cc2cccnc2)NC(=O)[C@H](CCCNC(=N)N)NC(=O)[C@H](Cc2ccccc2)NC(=O)CSC[C@@](C)(C(N)=O)NC(=O)[C@H](Cc2ccccc2)N(C)C1=O` [compound 375, cyclo(F-R-3Pal-cBuA-Phe2CN-Ahp-NMeF-aMeCl-ClAc)] ({CH2CO}-FR[3Pal][Cba][Phe(2-CN)][Ahp(2)][NMeF][αMeC]-NH2; thioether N-8) yielded an EC50 of over 50.8 µM.

Compound `CC(C)CC[C@@H]1NC(=O)[C@H](Cc2ccccc2F)NC(=O)[C@H](CC2CC2)NC(=O)[C@H](Cc2cncnc2)NC(=O)[C@H](C)N(C)C(=O)[C@H](Cc2ccccc2)OC(=O)C23CC(CNC(=O)[C@H](Cc4ccncc4F)N(C)C1=O)(C2)C3` [compound 337, cyclo(FLac-NMeA-PyrimAla-cPrA-Phe2F-hL-NMe4Pal2F-amBCP)] (cyclo([Ala(cPr)][Phe(2-F)][hLeu][X45][X1][PhLac][NMeA][Ala(pyrimidin-5-yl)])) registered an EC50 of 3.35 µM.

Regarding `CCCC[C@@H]1NC(=O)[C@H](Cc2cncnc2)NC(=O)[C@H](C)N(C)C(=O)[C@H](Cc2ccccc2)OC(=O)C23CC(CNC(=O)[C@H](Cc4ccccc4)N(C)C(=O)[C@H](CCCCF)NC(=O)[C@H](Cc4ccccc4F)NC1=O)(C2)C3` [compound 131, cyclo(FLac-NMeA-PyrimAla-Nle-Phe2F-NleF-NMeF-amBCP)] (cyclo([NMeA][Ala(pyrimidin-5-yl)][Nle][Phe(2-F)][X17][NMeF][X1][PhLac])), the EC50 worked out at 2.33 µM.

On to `CC(C)CC[C@@H]1NC(=O)[C@H](Cc2ccccc2F)NC(=O)[C@H](CC2CC2)NC(=O)[C@H](Cc2cncnc2)NC(=O)[C@H](C)N(C)C(=O)[C@H](Cc2ccccc2)OC(=O)C23CC(CNC(=O)[C@H](Cc4ccccc4)N(C)C1=O)(C2)C3` [compound 260, cyclo(FLac-NMeA-PyrimAla-cPrA-Phe2F-hL-NMeF-amBCP)] (cyclo([Ala(cPr)][Phe(2-F)][hLeu][NMeF][X1][PhLac][NMeA][Ala(pyrimidin-5-yl)])), for which the response was half-maximal at 0.167 µM (EC50).

`CCCC[C@@H]1NC(=O)[C@H](Cc2cccnc2)NC(=O)[C@H](C)N(C)C(=O)[C@H](Cc2ccccc2)OC(=O)CSC[C@@](C)(C(N)=O)NC(=O)[C@H](Cc2cccnc2)N(C)C(=O)[C@H](CCCC)NC(=O)[C@H](Cc2ccccc2F)NC1=O` [compound 398, cyclo(FLac-NMeA-3Pal-Nlc-Phe2F-Nle-NMe3Pal-aMeCl-ClAc)] ({CH2CO}-[PhLac][NMeA][3Pal][Nle][Phe(2-F)][Nle][NMe3Pal][αMeC]-NH2; thioether N-8) displayed an EC50 of 40.7 µM.

Compound `C[C@H]1C(=O)N[C@@H](Cc2cnn(C3COC3)c2)C(=O)N[C@@H](CC2CC2)C(=O)N[C@@H](Cc2ccccc2F)C(=O)N[C@@H](CCC(C)(F)F)C(=O)N(C)[C@@H](Cc2ccccc2)C(=O)NCC23CC(C2)(C3)C(=O)O[C@@H](Cc2ccccc2)C(=O)N1C` [compound 291, cyclo(FLac-NMcA-AlaPyzlOx-cPrA-Phe2F-Nle3F2-NMeF-amBCP)] (cyclo([Ala(cPr)][Phe(2-F)][Nle(5,5-F2)][NMeF][X1][PhLac][NMeA][X6])) showed an EC50 of 3.25 µM.

With `CC(C)CC[C@@H]1NC(=O)[C@H](Cc2ccccc2F)NC(=O)[C@H](CC2CC2)NC(=O)[C@H](Cc2cnn(C3COC3)c2)NC(=O)[C@H](C)N(C)C(=O)[C@H](Cc2ccccc2)OC(=O)C23CC(CNC(=O)[C@H](Cc4cccnc4)N(C)C1=O)(C2)C3` [compound 301, cyclo(FLac-NMeA-AlaPyz1Ox-cPrA-Phe2F-hL-NMe3Pal-amBCP)] (cyclo([Ala(cPr)][Phe(2-F)][hLeu][NMe3Pal][X1][PhLac][NMeA][X6])), a half-maximal effect (EC50) was put at 39.5 µM.

On to `CC(C)CC[C@@H]1NC(=O)[C@H](Cc2ccccc2F)NC(=O)[C@H](CC2CC2)NC(=O)[C@H](Cc2cncnc2)NC(=O)[C@H](C)N(C)C(=O)[C@H](Cc2ccccc2)OC(=O)C23CC(CNC(=O)[C@H](Cc4cccnc4F)N(C)C1=O)(C2)C3` [compound 336, cyclo(FLac-NMeA-PyrimAla-cPrA-Phe2F-hL-NMe3Pal2F-amBCP)] (cyclo([Ala(cPr)][Phe(2-F)][hLeu][X39][X1][PhLac][NMeA][Ala(pyrimidin-5-yl)])), for which the EC50 was found to be 1.39 µM.

In turn, `CCCCC[C@@H]1NC(=O)[C@H](Cc2ccc(OC)cc2)NC(=O)[C@H](CC2CCC2)NC(=O)[C@H](Cc2ccn(C)n2)NC(=O)[C@H](CCCNC(=N)N)NC(=O)[C@H](Cc2ccccc2)NC(=O)CSC[C@@](C)(C(N)=O)NC(=O)[C@H](Cc2ccccc2)N(C)C1=O` [compound 362, cyclo(F-R-MePyzAla-cBuA-TyrOMe-Ahp-NMeF-aMeCl-ClAc)] gave an EC50 of over 50.8 µM.

`CCCCC[C@@H]1NC(=O)[C@H](Cc2ccc(OC)cc2)NC(=O)[C@H](CC2CCC2)NC(=O)[C@H](Cc2ccoc2)NC(=O)[C@H](CCCNC(=N)N)NC(=O)[C@H](Cc2ccccc2)NC(=O)CSC[C@@](C)(C(N)=O)NC(=O)[C@H](Cc2ccccc2)N(C)C1=O` [compound 371, cyclo(F-R-Ala3Fur-cBuA-TyrOMe-Ahp-NMeF-aMeCl-ClAc)] had an EC50 of over 50.8 µM.
